# Source: US6395906B1, “Intermediates to pesticidal 1-arylpyrazoles” (Rhone-Poulenc Inc., priority 1995, dated 2002)
# How the values were obtained:
# Format in all cases: in vivo
# [1] = tested on: southern corn rootworm (Diabrotica undecimpunctata howardi); test: Southern corn rootworm (SCRW) soil test; conditions: soil concentration 2.5, 5, 6.75 or 10 ppm; mortality eight days after infestation
# Description: (§1) For the tick, aphids, souther armyworm, tobacco budworm, house fly, Mexican bean beetle, American cockroach, cat flea, souther corn rootworm, western corn rootworm, black cutworm, and southern root-knot nematode, a solution or suspension was prepared by adding the test compound to a solution of dimethylformamide, acetone, emulsifiers which are alkylaryl polyether alcohols organic sulfonates, and water. The result was a 100 or 500 ppm concentration of the test compound.
# (§2) For southern corn rootworm and black cutworm tests, the water-acetone-DMF-emulsifier solution was adjusted for a treatment rate of 2.5, 5, 6.75 or 10 ppm.
# (§3) Southern corn rootworm (SCRW), Black cutworm (BCW): Corn seeds were placed in a glass jar and covered with dry sandy loam soil. The 500 ppm test formulation was applied for a soil concentration of 2.5, 5, 6.75 or 10 ppm. As an untreated control, an aliquot of a water-acetone-DMF-emulsifier solution containing no test compound was applied in a similar manner. After incubating covered for 24 hours, the soil was mixed and inoculated with approximately 25 southern corn rootworm eggs. Following an additional 48 hours, two late second to early third instar black cutworms were placed in the jar with a portion of insect diet. Eight days after infestation, mortality was assessed visually for cutworm and by Berlese funnel extraction for rootworm.
# [2] = tested on: black cutworm (Agrotis ipsilon); test: Black cutworm (BCW) soil test; conditions: soil concentration 2.5, 5, 6.75 or 10 ppm; mortality eight days after infestation
# Description: as §1, §2, §3
# [3] = tested on: tobacco budworm (Heliothis virescens); test: Tobacco budworm (TBW) treated cotton leaf test; conditions: cotton leaves, 100 ppm; second instar larvae, five days
# Description: as §1
# Tobacco budworm (TBW): Cotton leaves were wet to runoff with the 100 ppm test compound formulation. As an untreated control, a water-acetone-DMF-emulsifier solution containing no test compound was also applied wet to runoff to cotton leaves. Ten randomly selected second instar tobacco budworm larvae were introduced into plastic containers in which moist dental wicks and the dry treated leaves had been placed. The cups were closed and held for five days. Larvae which were unable to move the length of the body, even upon stimulation by prodding, were considered dead.
# [4] = tested on: house fly (Musca domestica); test: House fly (HF) bait test; conditions: sucrose bait, 100 or 250 ppm; adult flies, mortality after 24 hours
# Description: as §1
# For house fly tests, the water-acetone-DMF-emulsifier solution was adjusted with a 20% by weight aqueous solution of sucrose to provide a final 100 or 250 ppm concentration of the test compound.
# House fly (HF): Four to six day old adult house flies were used. The files were immobilized by anesthetizing with carbon dioxide. A bait cup was prepared which contained the 100 or 250 ppm test compound formulation/sucrose solution and one or two absorbent cotton pad(s). As an untreated control, a water-acetone-DMF-emulsifier-sucrose solution containing no test compound was applied in a similar manner. The bait cup was introduced inside the cage prior to admitting 12-25 anesthetized flies. Mortality was assessed after 24 hours.
# [5] = tested on: cotton aphid (Aphis gossypii); test: Cotton aphid (CA) foliar spray test; conditions: cotton plants wet to runoff, 100 or 500 ppm; dead aphids counted after three days
# Description: as §1
# Buckthorn aphid (BA) or cotton aphid (CA): Adult and nymphal stages of buckthorn or cotton aphid were reared on potted dwarf nasturtium or cotton plants, respectively. Plants infested with 100-150 aphids were wet to runoff with the 100 or 500 ppm test compound formulation. As an untreated control, a water-acetone-DMF-emulsifier solution containing no test compound was also applied to runoff to infested plants. The treated plants were stored for one day for buckthorn aphid and three days for cotton aphid, after which the dead aphids were counted.
# [6] = tested on: cotton aphid (Aphis gossypii); test: Cotton aphid systemic test (CA-Sys); conditions: soil drench 10.0 ppm, aphid control rated three and six days after infestation
# From the text: (§4) For cotton aphid systemic tests and black cutwork—systemic tests, the water-acetone-DMF-emulsifier solution was adjusted for a treatment rate of 10.0 ppm soil concentration.
# Cotton aphid—systemic test (CA-Sys): Cotton seeds were placed on top of the soil surface in pots containing moist soil. The test compound solution was applied as a drench to the top of the soil and seeds for a treatment rate equivalent to 10.0 ppm soil concentration. As an untreated control, an aliquot of a water-acetone-DMF-emulsifier solution containing no test compound was applied in a similar manner. The soil surface and seeds were covered with moist soil. The pots were held in the greenhouse for the duration of the bioassay. When the cotyledons of the cotton were expanded (approximately 7 days after planting), the cotton was infested with approximately 25 cotton aphids (mixed population). The plant were rated for aphid control three and six days after infestation.
# [7] = tested on: western corn rootworm (Diabrotica virgifera virgifera); test: Western corn rootworm (WCRW) soil test; conditions: soil concentration 0.15 or 0.5 ppm; neonate larvae, mortality six days after infestation
# Description: as §1
# For the western corn rootworm test, the water-acetone-DMF-emulsifier solution was adjusted for a treatment rate of 0.15 or 0.5 ppm.
# Western corn rootworm (WCRW): The 500 ppm test formulation was applied to dry sandy loam soil contained in a glass jar for a soil concentration of 0.15 or 0.5 ppm. As an untreated control, an aliquot of a water-acetone-DMF-emulsifier solution containing no test compound was applied in a similar manner. After incubating covered for 24 hours, the soil was mixed and four germinated corn seedlings were added to the jar. Ten neonate western corn rootworm larvae were placed in the jar. Six days after infestation, mortality was assessed by Berlese funnel extraction.
# [8] = tested on: greenbug aphid (Schizaphis graminum); test: Greenbug aphid systemic test (GA-Sys); conditions: soil drench 10 or 25 ppm, sorghum; aphid control rated one and three days after infestation
# From the text: For the greenbug aphid systemic test, the water-acetone-DMF-emulsifier solution was adjusted for a treatment rate of 10 or 25 ppm soil concentration.
# Greenburg aphid—systemic test (GA-Sys): Sorghum seeds were placed on top of the soil surface in pots containing moist soil. The test compound solution was applied as a drench to the top of the soil and seeds for a treatment rate equivalent to 10 or 25 ppm soil concentration. As an untreated control, an aliquot of a water-acetone-DMF-emulsifier solution containing no test compound was applied in a similar manner. The soil surface and seeds were covered with moist soil. The pots were held in the greenhouse for the duration of the bioassay. When the sorghum seeds germinated, greenbug aphids were sprinkled evenly over the sorghum pots to about 50 aphids per pot. The plants were rated for aphid control one and three days after infestation.
# [9] = tested on: Mexican bean beetle (Epilachna varivestis); test: Mexican bean beetle (MBB) treated bean leaf test; conditions: bean leaves, 100 or 500 ppm; second instar larvae, five days
# Description: as §1
# Southern armyworm (SAW), Mexican bean beetle (MBB): Bean leaves were wet to runoff with the 100 or 500 ppm test compound formulation. As an untreated control, a water-acetone-DMF-emulsifier solution containing no test compound was also applied wet to runoff to bean leaves. Five or six randomly selected second instar southern armyworn larvae or Mexican bean bettle larvae were introduced into each plastic container with the dry treated leaves. The container was closed and held for five days. Larvae which were unable to move the length of the body, even upon stimulation by prodding, were considered dead.
# [10] = tested on: black cutworm (Agrotis ipsilon); test: Black cutworm systemic test (BCW-Sys); conditions: soil drench 10.0 ppm, corn seedling clipped ten days after treatment; mortality 4 days after infestation
# From the text: as §4
# Black cutworm—systemic test (BCW-Sys): Corn seeds were placed on top of the soil surface in pots containing moist soil. The test compound solution was applied as a drench to the top of the soil and seeds for a treatment rate equivalent to 10.0 ppm soil concentration. As an untreated control, an aliquot of water-acetone-DMF-emulsifier solution containing no test compound was applied in a similar manner. The soil surface and seeds were covered with moist soil. The pots were held in the greenhouse for the duration of the bioassay. Ten days after treatment, the corn seedling was clipped and placed in a plastic cup with 2 late second to early third instar black cutworm larvae. Mortality was assessed visually 4 days after infestation.
# [11] = tested on: cat flea (Ctenocephalides felis); test: Cat flea (CF) treated filter paper contact test; conditions: 500 ppm, adult fleas, contact mortality 1 day after infestation
# Description: as §1
# Cat flea (CF), dog tick (DT): Filter papers were treated with an aliquot of the 500 ppm test formulation. As an untreated control, an aliquot of a water-acetone-DMF-emulsifier solution containing no test compound was applied in a similar manner. When dry, 2 treated filters were placed in a vial for the flea and another 2 filters in a vial for the tick. Five adult fleas were added to one vial and 5 adult ticks to the second vial. Contact mortality was assessed 1 day after infestation for the flea and 14 days after infestation for the tick.
# [12] = tested on: American cockroach (Periplaneta americana); test: American cockroach (ACR) treated food pellet test; conditions: food pellets with 500 ppm formulation; nymphs, contact and feeding mortality 1 and 5 days after infestation
# Description: as §1
# American cockroach (ACR): Cat food or dog food pellets were added to jars containing 1-2 mls of the 500 ppm test formulation. As an untreated control, an aliquot of a water-acetone-DMF-emulsifier solution containing no test compound was applied in a similar manner. After 48 hours, roach nymphs were added to the jar. Contact and feeding mortally was assessed 1 and 5 days after infestation.
SMILES,SCRW [1],BCW [2],TBW [3],HF [4],CA [5],CA-Sys [6],WCRW [7],GA-Sys [8],MBB [9],BCW-Sys [10],CF [11],ACR [12]
"N#Cc1nn(-c2c(Cl)cc(C(F)(F)F)cc2Cl)c(C=NN)c1SC(F)(F)F [Compound 3, 5-{(N-amino)iminomethylidenyl}-3-cyano-1-(2,6-dichloro-4-trifluoromethylphenyl)-4-trifluoromethylthiopyrazole]",+ (active against 1 or more insects described above up to 100% mortality. This activity is indicated by a “+”),+ (active against 1 or more insects described above up to 100% mortality. This activity is indicated by a “+”),+ (active against 1 or more insects described above up to 100% mortality. This activity is indicated by a “+”),+ (active against 1 or more insects described above up to 100% mortality. This activity is indicated by a “+”),,,,,,,,
"CON=Cc1c(SC(F)(F)F)c(C#N)nn1-c1c(Cl)cc(C(F)(F)F)cc1Cl [Compound 5, 3-Cyano-1-(2,6-dichloro-4-trifluoromethylphenyl)-5-{(N-methoxy)iminomethylidenyl}-4-trifluoromethylthiopyrazole]",+ (active against 1 or more insects described above up to 100% mortality. This activity is indicated by a “+”),,,+ (active against 1 or more insects described above up to 100% mortality. This activity is indicated by a “+”),+ (active against 1 or more insects described above up to 100% mortality. This activity is indicated by a “+”),+ (active against 1 or more insects described above up to 100% mortality. This activity is indicated by a “+”),+ (active against 1 or more insects described above up to 100% mortality. This activity is indicated by a “+”),,,,,
"CC(=O)c1c([S+]([O-])C(F)(F)F)c(C#N)nn1-c1c(Cl)cc(C(F)(F)F)cc1Cl (stereo not shown) [Compound 10, 5-Acetyl-3-cyano-1-(2,6-dichloro-4-trifluoromethylphenyl)-4-trifluoromethylsulfinylpyrazole]",,+ (active against 1 or more insects described above up to 100% mortality. This activity is indicated by a “+”),+ (active against 1 or more insects described above up to 100% mortality. This activity is indicated by a “+”),,,,+ (active against 1 or more insects described above up to 100% mortality. This activity is indicated by a “+”),+ (active against 1 or more insects described above up to 100% mortality. This activity is indicated by a “+”),+ (active against 1 or more insects described above up to 100% mortality. This activity is indicated by a “+”),+ (active against 1 or more insects described above up to 100% mortality. This activity is indicated by a “+”),,
"CCOC(OCC)c1c(S(=O)(=O)C(F)(F)F)c(C#N)nn1-c1c(Cl)cc(C(F)(F)F)cc1Cl [Compound 19, 3-Cyano-1-(2,6-dichloro-4-trifluoromethylphenyl)-5-diethoxymethyl-4-trifluoromethylsulfonylpyrazole]",,,+ (active against 1 or more insects described above up to 100% mortality. This activity is indicated by a “+”),,,,,,,,+ (active against 1 or more insects described above up to 100% mortality. This activity is indicated by a “+”),+ (active against 1 or more insects described above up to 100% mortality. This activity is indicated by a “+”)
"CCOC(OCC)c1c([S+]([O-])C(F)(F)F)c(C#N)nn1-c1c(Cl)cc(C(F)(F)F)cc1Cl (stereo not shown) [Compound 20, 3-Cyano-1-(2,6-dichloro-4-trifluoromethylphenyl)-5-diethoxymethyl-4-trifluoromethylsulfinylpyrazole]",,,,,+ (active against 1 or more insects described above up to 100% mortality. This activity is indicated by a “+”),+ (active against 1 or more insects described above up to 100% mortality. This activity is indicated by a “+”),,,,,+ (active against 1 or more insects described above up to 100% mortality. This activity is indicated by a “+”),+ (active against 1 or more insects described above up to 100% mortality. This activity is indicated by a “+”)
